Data published in patent publication US12195427B2, “MASP-2 inhibitors and methods of use” (priority 2018, dated 2025).

Target: MASP-2 CCP2-SP (Homo sapiens (Human), UniProt O00187)
Assay: MASP-2 co-crystallization, X-ray crystallography and structure analysis (H-bonds, van der Waals contacts);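 on Ligand-pharmacophore element distance, pharmacophore element C2: distance from averaged pharmacophore element to bound ligand; missing value means element absent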;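 on Ligand-pharmacophore element distance, pharmacophore element C3: distance from averaged pharmacophore element to bound ligand; missing value means element absent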;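 on Ligand-pharmacophore element distance, pharmacophore element C4: distance from averaged pharmacophore element to bound ligand; missing value means element absent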;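 on Ligand-pharmacophore element distance, pharmacophore element C5: distance from averaged pharmacophore element to bound ligand; missing value means element absent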
Set-up: van der Waals contact distance, MASP-2 HIS 483 atom CD2 / van der Waals contact distance, MASP-2 HIS 483 atom NE2 / van der Waals contact distance, SER 654 C to compound atom / van der Waals contact distance, SER 654 O to compound atom / van der Waals contact distance, TRP 655 C to compound atom / van der Waals contact distance, MASP-2 GLY 528 atom CA / van der Waals contact distance TRP 655 atom CZ3 / van der Waals contact distance TRP 655 atom N / van der Waals contact distance TRP 655 atom CE3 / van der Waals contact distance GLY 656 atom C / van der Waals contact distance GLY 656 atom CA / van der Waals contact distance GLY 656 atom O / van der Waals contact distance, MASP-2 TYR 607 atom CD1 / van der Waals contact distance, MASP-2 PRO 606 atom O / d(C3,CA1) / d(CA1,N1)2 / d(H4,O1) / d(H4,O2) / d(O1,O2) / d(CA1,O2) / d(CA6,O1) / d(CA6,O2) / d(CA1,C5) / d(O2,H3) / d(N2,C2) / d(CA5,N2) / d(N2,C4) / d(N2,C6) / d(N2,CA3) / d(N2,O3) / d(O4,H2): unit not given beside the values
Details: for Ligand-pharmacophore element distance, pharmacophore element C2 / Ligand-pharmacophore element distance, pharmacophore element C3 / Ligand-pharmacophore element distance, pharmacophore element C4 / Ligand-pharmacophore element distance, pharmacophore element C5 / Ligand-pharmacophore element distance, pharmacophore element C6 / Ligand-pharmacophore element distance, pharmacophore element C7 / Ligand-pharmacophore element distance, pharmacophore element CA1 / Ligand-pharmacophore element distance, pharmacophore element CA2 / Ligand-pharmacophore element distance, pharmacophore element CA3 / Ligand-pharmacophore element distance, pharmacophore element CA4 / Ligand-pharmacophore element distance, pharmacophore element CA5 / Ligand-pharmacophore element distance, pharmacophore element CA6: Table A4-1
Outline: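 Human MASP-2 CCP2-SP (± 6His) expressed in E. coli and crystallized; crystals soaked in crystallization solution containing inhibitor, cryoprotected with 20% glycerol or frozen directly. Synchrotron data at 1.0 wavelength; molecular replacement from 1Q3X, partial refinement; one ligand pose analyzed; LigPlot+ contacts may include H-bonds.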

[1] = Table A5-1 pharmacophore: distance between elements, S2/S1 region
[2] = Table A5-2 pharmacophore distance, S3/S4 region
[3] = Table A7-1, between pharmacophore elements of the bound compound
[4] = Table A7-2, between pharmacophore elements of the bound compound

Sequence of MASP-2 CCP2-SP (O00187 445-686): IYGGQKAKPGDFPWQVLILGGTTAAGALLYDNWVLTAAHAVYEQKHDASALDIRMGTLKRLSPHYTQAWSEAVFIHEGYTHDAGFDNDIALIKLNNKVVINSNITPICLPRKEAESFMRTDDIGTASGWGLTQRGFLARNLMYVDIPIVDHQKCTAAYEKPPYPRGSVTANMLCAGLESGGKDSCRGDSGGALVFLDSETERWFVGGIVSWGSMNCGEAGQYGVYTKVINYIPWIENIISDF
Sequence of MASP-2 CCP2-SP (O00187 364-432 partner): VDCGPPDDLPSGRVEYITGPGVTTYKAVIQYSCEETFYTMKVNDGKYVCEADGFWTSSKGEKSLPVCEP

C[C@H](NC(=O)[C@H]1C[C@@H](c2ccccc2)CCN1)C(=O)NCc1cc(Cl)ccc1O.Cl [1078_16]
Ligand-pharmacophore element distance, pharmacophore element C2: 0.64 | Ligand-pharmacophore element distance, pharmacophore element C3: 0 | Ligand-pharmacophore element distance, pharmacophore element C4: 0 | Ligand-pharmacophore element distance, pharmacophore element C5: 0.42 | Ligand-pharmacophore element distance, pharmacophore element C6: 0 | Ligand-pharmacophore element distance, pharmacophore element C7: 0 | Ligand-pharmacophore element distance, pharmacophore element CA1: 1.49 | Ligand-pharmacophore element distance, pharmacophore element CA2: 0.49 | Ligand-pharmacophore element distance, pharmacophore element CA3: 0 | Ligand-pharmacophore element distance, pharmacophore element CA4: 0 | Ligand-pharmacophore element distance, pharmacophore element CA5: 0 | Ligand-pharmacophore element distance, pharmacophore element CA6: 0 | d(CA1,C5) [1]: 3.13 | d(CA1,O1) [1]: 4.42 | d(CA1,O2) [1]: 4.54 | d(CA1,O4) [1]: 2.74 | d(H4,O1) [1]: 2.20 | d(H4,O2) [1]: 2.69 | d(O1,O2) [1]: 3.11 | d(O4,H2) [1]: 0.97 | d(N2,C2) [2]: 1.49 | d(N2,CA2) [2]: 5.80 | d(O2,H3) [2]: 2.96 | d(O2,N2) [2]: 2.90 | a(C5, CA1, O1) (Table A6-1 pharmacophore angle): 161.46 | a(CA1, O1, O2) (Table A6-1 pharmacophore angle): 112.44 | a(CA1, O4, H2) (Table A6-1 pharmacophore angle): 126.68 | a(O1, CA1, O4) (Table A6-1 pharmacophore angle): 67.40 | a(O1, O2, H4) (Table A6-1 pharmacophore angle): 101.76 | a(O1, O2, H3) (Table A6-2 pharmacophore angle): 140.06 | a(O1, O2, N2) (Table A6-2 pharmacophore angle): 144.54 | a(O2, N2, C2) (Table A6-2 pharmacophore angle): 122.62 | a(O2, N2, CA2) (Table A6-2 pharmacophore angle): 154.31 | Pharmacophore torsion angle a(C5, CA1, O1, H4) [3]: 14.30 | Pharmacophore torsion angle a(H4, O1, O2, H3) [3]: −119.50 | Pharmacophore torsion angle a(H4, O1, O2, N2) [3]: −111.94 | Pharmacophore torsion angle a(O1, H4, O2, CA1) [3]: −58.07 | Pharmacophore torsion angle a(O1, O2, N2, C2) [3]: 136.30 | Pharmacophore torsion angle a(O1, O2, N2, CA2) [4]: 139 28

Cc1nc(N)ccc1CNC(=O)[C@H](C)NC(=O)[C@H]1C[C@@H](c2cccc3ccccc23)CCN1 [compound 1297, (2R,4S)—N—((S)-1-(((6-Amino-2-methylpyridin-3-yl)methyl)amino)-1-oxopropan-2-yl)-4-(naphthalen-1-yl)piperidine-2-carboxamide]
H-bond distance to MASP-2 ASP 627 atom OD2 (Table A1 (H-Bonds), ASP 627 OD2): 3.13 | H-bond distance to MASP-2 GLY 656 atom N (Table A1 (H-Bonds), GLY 656 N): 3.33 | H-bond distance to MASP-2 GLY 656 atom O (Table A1 (H-Bonds), GLY 656 O): 2.67 | H-bond distance to MASP-2 SER 628 atom O (Table A1 (H-Bonds), SER 628 O): 2.96 | H-bond distance to MASP-2 SER 654 atom O (Table A1 (H-Bonds), SER 654 O): 2.88 | H-bond distance to MASP-2 SER 657 atom O (Table A1 (H-Bonds), SER 657 O): 3.06 | van der Waals contact distance, MASP-2 HIS 483 atom CD2 (Table A2-1): 3.74 | van der Waals contact distance, MASP-2 HIS 483 atom NE2 (Table A2-1): 3.84 | van der Waals contact distance, MASP-2 GLY 528 atom CA (Table A2-2): 3.76 | van der Waals contact distance, MASP-2 TYR 607 atom CD1 (Table A2-4): 3.81 | van der Waals contact distance, MASP-2 amino acid atom to compound atom (Table A2-9, ARG 630, AA atoms CG, CZ): 3.47 | van der Waals contact distance, VAL 653 CG1 to compound atom (Table A2-11): 3.22 | van der Waals contact distance, SER 654 O to compound atom (Table A2-12): 3.51 | van der Waals contact distance, TRP 655 C to compound atom (Table A2-12): 3.89 | van der Waals contact distance, TRP 655 CA to compound atom (Table A2-12): 3.49 | van der Waals contact distance TRP 655 atom CE3 (Table A2-13, MASP-2 TRP 655 CE3, compound atom in line below): 3.54

C[C@H](NC(=O)[C@@H](CCc1ccccc1)NCCCc1ccc(O)cc1)C(=O)NCc1ccc(C(=N)N)cc1.Cl.Cl [1145_B]
Ligand-pharmacophore element distance, pharmacophore element C2: 0 | Ligand-pharmacophore element distance, pharmacophore element C3: 0 | Ligand-pharmacophore element distance, pharmacophore element C4: 0 | Ligand-pharmacophore element distance, pharmacophore element C5: 0 | Ligand-pharmacophore element distance, pharmacophore element C6: 0 | Ligand-pharmacophore element distance, pharmacophore element C7: 0 | Ligand-pharmacophore element distance, pharmacophore element CA1: 0.47 | Ligand-pharmacophore element distance, pharmacophore element CA2: 0.41 | Ligand-pharmacophore element distance, pharmacophore element CA3: 1.22 | Ligand-pharmacophore element distance, pharmacophore element CA4: 0 | Ligand-pharmacophore element distance, pharmacophore element CA5: 0 | Ligand-pharmacophore element distance, pharmacophore element CA6: 0 | d(CA1,N1) [1]: 3.54 | d(CA1,O1) [1]: 4.42 | d(CA1,O2) [1]: 4.42 | d(H4,O1) [1]: 4.89 | d(H4,O2) [1]: 4.48 | d(O1,O2) [1]: 3.28 | d(N2,CA2) [2]: 5.91 | d(N2,CA3) [2]: 5.59 | d(N2,H1) [2]: 8.68 | d(N2,O3) [2]: 7.97 | d(O2,H3) [2]: 5.36 | d(O2,N2) [2]: 2.77 | a(CA1, O1, O2) (Table A6-1 pharmacophore angle): 111.73 | a(O1, O2, H4) (Table A6-1 pharmacophore angle): 139.31 | A(N1, CA1, O1) a) (Table A6-1 pharmacophore angle, all compounds with protonatable center N1 except Methyl-amino-pyridine): 162.28 | a(O1, O2, H3) (Table A6-2 pharmacophore angle): 150.25 | a(O1, O2, N2) (Table A6-2 pharmacophore angle): 136.24 | a(O2, N2, CA2) (Table A6-2 pharmacophore angle): 153.28 | a(O2, N2, CA3) (Table A6-2 pharmacophore angle): 161.48 | a(O2, N2, H1) (Table A6-2 pharmacophore angle): 168.66 | a(O2, N2, O3) (Table A6-2 pharmacophore angle): 168.41 | Pharmacophore torsion angle a(H4, O1, O2, H3) [3]: 48.71 | Pharmacophore torsion angle a(H4, O1, O2, N2) [3]: 124.15 | Pharmacophore torsion angle a(N1, CA1, O2, H4) [3]: −128.41 | Pharmacophore torsion angle a(O1, H4, O2, CA1) [3]: −59.90 | Pharmacophore torsion angle a(O1, O2, N2, CA2) [4]: 140.87 | Pharmacophore torsion angle a(O1, O2, N2, CA3) [4]: −15.65 | Pharmacophore torsion angle a(O1, O2, N2, H1) [4]: −15.97 | Pharmacophore torsion angle a(O1, O2, N2, O3) [4]: −10.98

C[C@H](NC(=O)[C@H]1C[C@@H](c2ccccc2)CCN1)C(=O)NCc1cc(Cl)ccc1O.Cl [1078_5]
Ligand-pharmacophore element distance, pharmacophore element C2: 0.71 | Ligand-pharmacophore element distance, pharmacophore element C3: 0 | Ligand-pharmacophore element distance, pharmacophore element C4: 0 | Ligand-pharmacophore element distance, pharmacophore element C5: 0.42 | Ligand-pharmacophore element distance, pharmacophore element C6: 0 | Ligand-pharmacophore element distance, pharmacophore element C7: 0 | Ligand-pharmacophore element distance, pharmacophore element CA1: 1.76 | Ligand-pharmacophore element distance, pharmacophore element CA2: 0.6 | Ligand-pharmacophore element distance, pharmacophore element CA3: 0 | Ligand-pharmacophore element distance, pharmacophore element CA4: 0 | Ligand-pharmacophore element distance, pharmacophore element CA5: 0 | Ligand-pharmacophore element distance, pharmacophore element CA6: 0 | d(CA1,C5) [1]: 3.12 | d(CA1,O1) [1]: 4.48 | d(CA1,O2) [1]: 4.88 | d(CA1,O4) [1]: 2.72 | d(H4,O1) [1]: 2.40 | d(H4,O2) [1]: 2.46 | d(O1,O2) [1]: 3.41 | d(O4,H2) [1]: 0.98 | d(N2,C2) [2]: 1.45 | d(N2,CA2) [2]: 5.65 | d(O2,H3) [2]: 3.24 | d(O2,N2) [2]: 2.95 | a(C5, CA1, O1) (Table A6-1 pharmacophore angle): 164.79 | a(CA1, O1, O2) (Table A6-1 pharmacophore angle): 117.54 | a(CA1, O4, H2) (Table A6-1 pharmacophore angle): 131.80 | a(O1, CA1, O4) (Table A6-1 pharmacophore angle): 55.67 | a(O1, O2, H4) (Table A6-1 pharmacophore angle): 90.82 | a(O1, O2, H3) (Table A6-2 pharmacophore angle): 138.56 | a(O1, O2, N2) (Table A6-2 pharmacophore angle): 141.15 | a(O2, N2, C2) (Table A6-2 pharmacophore angle): 114.27 | a(O2, N2, CA2) (Table A6-2 pharmacophore angle): 151.79 | Pharmacophore torsion angle a(C5, CA1, O1, H4) [3]: 21.83 | Pharmacophore torsion angle a(H4, O1, O2, H3) [3]: −119.72 | Pharmacophore torsion angle a(H4, O1, O2, N2) [3]: −115.76 | Pharmacophore torsion angle a(O1, H4, O2, CA1) [3]: −52.04 | Pharmacophore torsion angle a(O1, O2, N2, C2) [3]: 148.01 | Pharmacophore torsion angle a(O1, O2, N2, CA2) [4]: 149.21
